US6689936B1, “Method for evaluating a compound for its effect on skin” (The General Hospital Corp., priority 1997, dated 2004)

Tests used:
[1] = system: human VEGF promoter driven GFP reporter; assay: Direct confocal detection of GFP induction in intact skin of living hairless VEGF-GFP transgenic mice; assay type: in vivo; conditions: TPA applied to back skin of anaesthetized hairless VEGF-GFP mouse, after 12hrs, compared with acetone on the same individual
Description: To examine whole intact skin on living transgenic mouse with confocal microscope, hairless VEGF-GFP transgenic mice were anaesthetized with avertin by intraperitoneal injection. They were placed directly on the petri dish with dorsal position. TPA or acetone treatment was performed on the back skin same as described above marking treated area with an ink to ease the orientation of the skin. Sections or intact skin of the mice were analyzed using Leica DM IRBE inverted microscope and Leica TCS NT4D confocal microscope system with band pass filter 530/30 nm, detecting emission at wavelengths between 515-545 nm.
To test whether the induction of GFP is directly detected in the skin of a living VEGF-GFP transgenic mouse, acetone or TPA applied skin of the transgenic hairless mouse (same individual) was directly examined by confocal imaging under anaesthetized condition. […] X-Z confocal imaging confirmed that this signal was within the basal layer of the epidermis.

[2] = system: human VEGF promoter driven GFP reporter; assay: Induction of epidermal GFP by topical TPA in VEGF-GFP transgenic mouse skin (fluorescence microscopy of skin biopsy sections); assay type: in vivo; conditions: single dose of 5 μg TPA in acetone, topical on back skin, biopsy after 12 hours; acetone alone showed only basal levels
Description: Tissue preparation for GFP detection and epimicroscopic observation solutions washed out or diffused GFP-derived fluorescence from the site of GFP expression. Ultimately, a freshly dissected, unfixed tissue block, was directly cut into 12 μm thick frozen sections using a cryostat. Epifluorescent microscopic observation was performed immediately after sectioning, without mounting medium or extended slide storage, using FITC/TRITC double excitation and an emission filter Chroma, *VT) to distinguish the GFP-derived fluorescent signal from tissue autofluorescence.
For induction of VEGF mRNA by TPA, a single dose of 5 μg TPA in acetone was topically applied to back skin of transgenic mice and skin biopsy samples were collected after 12 hours.
Induction of epidermal GFP by phorbolester application was also examined. […] This signal seemed to localize to the basoplateral surface of the epithelium rather than in either the keratinocyt cytosol or nucleus.

VEGF = conditions: topical application of phorbolesters; cited from earlier work

## CCCCCCCCCCCCCC(=O)O[C@@H]1[C@@H](C)[C@@]2(O)[C@@H](C=C(CO)C[C@]3(O)C(=O)C(C)=C[C@@H]23)[C@H]2C(C)(C)[C@]12OC(C)=O [TPA]
[1]
  GFP fluorescence positive area in living epidermis (confocal imaging): increase of fluorescence positive area
[2]
  GFP fluorescent signal in epidermis of transgenic skin: Accumulation of fluorescent signal was observed
VEGF
  expression of VEGF in epidermal keratinocytes: up-regulated
